Experiments:
[1] = tested on: bicistronic HCV replicon (replicon RNA, GenBank Accession No. AJ242654); assay: HCV Replicon Assay; assay type: cell-based; conditions: Hepatitis C virus, 72 h, read-out: Replicon IC50

Compound	melting point	IC50 [1]
CCc1cc2c(cc1F)c(C#N)c(-c1ncc(S(=O)(=O)N[C@@H](C)C(F)(F)F)cc1C)n2-c1ncccn1 [compound 867, 6-[3-cyano-6-ethyl-5-fluoro-1-(pyrimidin-2-yl)-1H-indol-2-yl]-5-methyl-N-[(2S)-1,1,1-trifluoropropan-2-yl]pyridine-3-sulfonamide]	192 to 198 °C	< 500 nM
CC(C)NS(=O)(=O)c1cnc(-c2c(C#N)c3ccc(F)cc3n2C2CCC2)nc1 [compound 138, 2-(3-cyano-1-cyclobutyl-6-fluoro-1H-indol-2-yl)-N-(propan-2-yl)pyrimidine-5-sulfonamide]	193 to 195 °C	500 to 2000 nM
Cc1c(F)cc2c(C#N)c(-c3ccc(S(=O)(=O)N[C@@H](C)C(F)(F)F)cn3)n(C3CCCC3)c2c1F [compound 508, 6-(3-cyano-1-cyclopentyl-5,7-difluoro-6-methyl-1H-indol-2-yl)-N-[(2S)-1,1,1-trifluoropropan-2-yl]pyridine-3-sulfonamide]	215 to 219 °C	< 500 nM
Cc1cc2c(cc1O)c(C#N)c(-c1ccc(S(=O)(=O)N[C@@H](C)C(F)(F)F)cn1)n2C1CCCC1 [compound 691, 6-(3-cyano-1-cyclopentyl-5-hydroxy-6-methyl-1H-indol-2-yl)-N-[(2S)-1,1,1-trifluoropropan-2-yl]pyridine-3-sulfonamide]	232 to 233 °C	< 500 nM
Cc1ccc2c(c1)c(C#N)c(-c1ccc(S(=O)(=O)NC3(C(F)(F)F)CC3)cn1)n2C1CCCC1 [compound 313, 6-(3-cyano-1-cyclopentyl-5-methyl-1H-indol-2-yl)-N-[1-(trifluoromethyl)cyclopropyl]pyridine-3-sulfonamide]	209 to 214 °C	< 500 nM
C[C@H](NS(=O)(=O)c1ccc(-c2c(C#N)c3cc(F)c(Br)cc3n2-c2ncccn2)nc1)C(F)(F)F [compound 895, 6-[6-bromo-3-cyano-5-fluoro-1-(pyrimidin-2-yl)-1H-indol-2-yl]-N-[(2S)-1,1,1-trifluoropropan-2-yl]pyridine-3-sulfonamide]	224 to 226 °C	< 500 nM
C[C@H](NS(=O)(=O)c1ccc(-c2c(C#N)c3cc(Cl)ccc3n2-c2ccccn2)nc1)C(F)(F)F [compound 442, 6-[5-chloro-3-cyano-1-(pyridin-2-yl)-1H-indol-2-yl]-N-[(2S)-1,1,1-trifluoropropan-2-yl]pyridine-3-sulfonamide]	186 to 188 °C	< 500 nM
CC(C)(C)S(=O)(=O)Nc1ccc(-c2c(C(N)=O)c3c(F)cc(C4CC4)cc3n2C2CCCCC2)nc1 [compound 1097, 2-{5-[(tert-butylsulfonyl)amino]pyridin-2-yl}-1-cyclohexyl-6-cyclopropyl-4-fluoro-1H-indole-3-carboxamide]	275 to 285 °C (dec.)	< 500 nM
CCc1cc2c(cc1F)c(C(N)=O)c(-c1ccc(S(=O)(=O)N[C@@H](C)C(F)(F)F)cn1)n2-c1cc(Cl)ccn1 [compound 1048, 1-(4-chloropyridin-2-yl)-6-ethyl-5-fluoro-2-(5-{[(2S)-1,1,1-trifluoropropan-2-yl]sulfamoyl}pyridin-2-yl)-1H-indole-3-carboxamide]	200 to 204 °C	500 to 2000 nM
Cc1ccc2c(C#N)c(-c3ccc(S(=O)(=O)N[C@@H](C)C(F)(F)F)cn3)n(-c3ncccn3)c2c1 [compound 677, 6-[3-cyano-6-methyl-1-(pyrimidin-2-yl)-1H-indol-2-yl]-N-[(2S)-1,1,1-trifluoropropan-2-yl]pyridine-3-sulfonamide]	195 to 198 °C	< 500 nM
CCc1ccc2c(c1)c(C#N)c(-c1ccc(S(=O)(=O)NC(CF)CF)cn1)n2C1CCCC1 [compound 381, 6-(3-cyano-1-cyclopentyl-5-ethyl-1H-indol-2-yl)-N-(1,3-difluoropropan-2-yl)pyridine-3-sulfonamide]	167 to 168 °C	< 500 nM
Cc1cc2c(cc1F)c(C#N)c(-c1ccc(S(=O)(=O)N[C@@H](C)C(F)(F)F)cn1)n2-c1c[nH]nc1C [compound 1030, 6-[3-cyano-5-fluoro-6-methyl-1-(3-methyl-1H-pyrazol-4-yl)-1H-indol-2-yl]-N-[(2S)-1,1,1-trifluoropropan-2-yl]pyridine-3-sulfonamide]	238.8 to 244 °C	500 to 2000 nM
Cc1cc(-n2c(-c3ccc(S(=O)(=O)N[C@@H](C)C(F)(F)F)cn3)c(C#N)c3cc(F)c(C)cc32)cs1 [compound 1058, 6-[3-cyano-5-fluoro-6-methyl-1-(5-methylthiophen-3-yl)-1H-indol-2-yl]-N-[(2S)-1,1,1-trifluoropropan-2-yl]pyridine-3-sulfonamide]	210.5 to 215.2 °C	< 500 nM
CCc1cc2c(cc1F)c(C(N)=O)c(-c1ccc(S(=O)(=O)N[C@@H](C)C(F)(F)F)cn1)n2-c1ccc(F)cn1 [compound 981, 6-ethyl-5-fluoro-1-(5-fluoropyridin-2-yl)-2-(5-{[(2S)-1,1,1-trifluoropropan-2-yl]sulfamoyl}pyridin-2-yl)-1H-indole-3-carboxamide]	200 to 204 °C	< 500 nM
CCc1cc2c(cc1F)c(C(N)=O)c(-c1ccc(S(=O)(=O)N[C@@H](C)C(F)(F)F)cn1)n2-c1ccc(C)cc1 [compound 1021, 6-ethyl-5-fluoro-1-(4-methylphenyl)-2-(5-{[(2S)-1,1,1-trifluoropropan-2-yl]sulfamoyl}pyridin-2-yl)-1H-indole-3-carboxamide]	228 to 233 °C	< 500 nM
N#Cc1c(-c2ccc(S(=O)(=O)NC(CF)CF)cn2)n(C2CCC2)c2cc(CC(F)F)ccc12 [compound 267, 6-[3-cyano-1-cyclobutyl-6-(2,2-difluoroethyl)-1H-indol-2-yl]-N-(1,3-difluoropropan-2-yl)pyridine-3-sulfonamide]	166 to 168 °C	< 500 nM
CCc1cc2c(cc1F)c(C#N)c(-c1ccc(S(=O)(=O)NC3(C(F)(F)F)CC3)cn1)n2C1CCCC1 [compound 637, 6-(3-cyano-1-cyclopentyl-6-ethyl-5-fluoro-1H-indol-2-yl)-N-[1-(trifluoromethyl)cyclopropyl]pyridine-3-sulfonamide]	198 to 199 °C	< 500 nM
COc1ccc(-n2c(-c3ccc(S(=O)(=O)NC(CF)CF)cn3)c(C#N)c3cc(F)ccc32)cc1 [compound 336, 6-[3-cyano-5-fluoro-1-(4-methoxyphenyl)-1H-indol-2-yl]-N-(1,3-difluoropropan-2-yl)pyridine-3-sulfonamide]	198 to 200 °C	< 500 nM
Cc1nc(NS(=O)(=O)C(C)(C)C)ccc1-c1c(C(N)=O)c2cc(F)c(OC(F)F)cc2n1[C@@H](C)C1CC1 [compound 1096, 2-{6-[(tert-butylsulfonyl)amino]-2-methylpyridin-3-yl}-1-[(1S)-1-cyclopropylethyl]-6-(difluoromethoxy)-5-fluoro-1H-indole-3-carboxamide]	147 to 151 °C	< 500 nM
Cc1ccnc(-n2c(-c3ccc(S(=O)(=O)N[C@@H](C)C(F)(F)F)cn3)c(C(N)=O)c3cc(F)c(C)cc32)n1 [compound 905, 5-fluoro-6-methyl-1-(4-methylpyrimidin-2-yl)-2-(5-{[(2S)-1,1,1-trifluoropropan-2-yl]sulfamoyl}pyridin-2-yl)-1H-indole-3-carboxamide]	205 to 210 °C	< 500 nM
CC(C)n1c(-c2ccc(S(=O)(=O)N[C@@H](C)C(F)(F)F)cn2)c(C#N)c2c(F)cc(OC(F)F)cc21 [compound 784, 6-[3-cyano-6-(difluoromethoxy)-4-fluoro-1-(propan-2-yl)-1H-indol-2-yl]-N-[(2S)-1,1,1-trifluoropropan-2-yl]pyridine-3-sulfonamide]	193 to 194 °C	< 500 nM
COc1ccc2c(C#N)c(-c3ccc(S(=O)(=O)N[C@H](C)C(F)(F)F)cn3)n(C3CCCCC3)c2c1 [compound 518, 6-(3-cyano-1-cyclohexyl-6-methoxy-1H-indol-2-yl)-N-[(2R)-1,1,1-trifluoropropan-2-yl]-pyridine-3-sulfonamide]	198 to 204 °C	< 500 nM
C[C@H](NS(=O)(=O)c1cnc(-c2c(C#N)c3cc(F)ccc3n2-c2ccccn2)nc1)C(F)(F)F [compound 474, 2-[3-cyano-5-fluoro-1-(pyridin-2-yl)-1H-indol-2-yl]-N-[(2S)-1,1,1-trifluoropropan-2-yl]pyrimidine-5-sulfonamide]	209 to 210 °C	< 500 nM
Cc1cc(F)c2c(C#N)c(-c3ccc(S(=O)(=O)N[C@@H](C)C(F)(F)F)cn3)n(C3CCC3)c2c1 [compound 627, 6-(3-cyano-1-cyclobutyl-4-fluoro-6-methyl-1H-indol-2-yl)-N-[(2S)-1,1,1-trifluoropropan-2-yl]pyridine-3-sulfonamide]	205 to 210 °C	< 500 nM
C[C@H](NS(=O)(=O)c1ccc(-c2c(C#N)c3ccc(C#N)cc3n2C2CCCC2)nc1)C(F)(F)F [compound 470, 6-(3,6-dicyano-1-cyclopentyl-1H-indol-2-yl)-N-[(2S)-1,1,1-trifluoropropan-2-yl]pyridine-3-sulfonamide]	203 to 205 °C	< 500 nM
N#Cc1c(-c2ncc(S(=O)(=O)NC(CF)CF)cn2)n(C2CCCCC2)c2cc(F)ccc12 [compound 235, 2-(3-cyano-1-cyclohexyl-6-fluoro-1H-indol-2-yl)-N-(1,3-difluoropropan-2-yl)pyrimidine-5-sulfonamide]	213 to 218 °C	< 500 nM
C[C@@H](NS(=O)(=O)c1ccc(-c2c(C#N)c3ccc(OC(F)F)cc3n2C2CCCCC2)nc1)C(F)(F)F [compound 195, 6-[3-cyano-1-cyclohexyl-6-(difluoromethoxy)-1H-indol-2-yl]-N-[(2R)-1,1,1-trifluoropropan-2-yl]pyridine-3-sulfonamide]	170 to 172 °C	< 500 nM
